Test results: US20060040390A1, “Device, method, system, and program for intelligent in vivo cell-level chemical or genetic material delivery” (priority 2004, published 2006)
Each block holds one compound with its values, some of them ahead of it.

Tests used:
[1] = tested on: neuroblastoma (B104 cells) xenografted in nude mice; assay: In vivo tumor study, B104 neuroblastoma xenografted in nude mice
Text: Nude mice (seven weeks old, female) are used to test the effect of paclitaxel in tumor progression. […] Tumor growth is monitored daily. Mice are then randomized and treatments are initiated. […] Measurements of tumor volume are taken using calipers, every day post treatment for a total of 25 days.

[2] = tested on: B104 cells
Procedure: The B104 cells are a rat neuroblastoma line that expresses p75 receptors (p75^+). The 4-3.6 cells are B104 cells stably transfected with human TrkA cDNA (p75^+, TrkA^+).
Therefore, tested is whether a single bolus of paclitaxel is an effective cytotoxic agent. Cells ae exposed to the indicated concentration of paclitaxel for 30 minutes at 4° C. Then, cells are plated in a 96-well plate (Falcon); this group represents treatment with paclitaxel present in a constant manner. The remaining cells are washed free of excess paclitaxel prior to plating; this group represents a single exposure to paclitaxel. […] Optical density readings of MTT are done in an EIA Plate Reader model 2550 (Bio-Rad) at 595 nm.
Paclitaxel is lipophilic and readily penetrates the cell membrane. […] Tested is whether a single short term exposure to paclitaxel can be effective in killing neuroblastoma B104 cells. These assays are done at 4°
The mAbs purpose is purely for target binding.

[3] = tested on: cells that do not express p75; assay: Selectivity of paclitaxel-MC192 on cells that do not express p75; assay type: cell-based
[4] = tested on: KB-V cells; assay: cells
[5] = tested on: mouse fibroblasts stably transfected with IGF-R; conditions: 72 h
[6] = tested on: 4-3.6 cells; assay: In vitro survival assay with caspase inhibitor, serum-withdrawal model, 4-3.6 cells; assay type: cell-based, rat; conditions: ~48 hrs
Text: (§1) 4-3.6 cells are placed in serum free media (SFM, PFHM-II, GIBCO, Toronto), where they undergo apoptosis (serum-withdrawal model).

[7] = tested on: B104 cells; assay: In vitro survival assay with caspase inhibitor, B104 cells that do not express TrkA; assay type: cell-based, rat; conditions: B104 cells (no TrkA), serum free media
Procedure: as §1
Cells are then cultured for ~48 hrs. Cell growth/survival is calculated relative to 5% serum (standardized to 100%). Addition of serum protects cells in SFM from death.
Cell survival is measured by quantitative tetrazolium salt reagent (MTT, Sigma) and optical density (OD) readings as described [Maliartchouk, 1997]. n=3-6.
Testing 4-3.6 Cell Survival (MTT, % of serum control). Serum free media 0.+−. 4 5%. Serum 100.+−. 2 20 nM zVAD−2.+−. 3 VAD-5C3 conjugate (20 nM VAD equivalent, 1 nM 41.+−. 1 5C3). […] Typicaly, […] mAb 5C3 alone (unconjugated) does protect 4-3.6 cells in SFM to ~10%, which is a much lower degree of protection than equimolar doses of the VAD-5C3 conjugate.

Compound: CC(=O)O[C@H]1C(=O)[C@@]2(C)[C@H]([C@H](OC(=O)c3ccccc3)[C@]3(O)C[C@H](OC(=O)[C@H](O)[C@@H](NC(=O)c4ccccc4)c4ccccc4)C(C)=C1C3(C)C)[C@]1(OC(C)=O)CO[C@@H]1C[C@@H]2O [paclitaxel]
antitumor activity, tumor growth ([1]; nude mice, five IP injections every two days, versus control (HBSS)): not able to do so
efficacy of free drug at the conjugate's effective dose ([1]; ~3.5 nM): not effective at this dose
cytotoxic effect, single exposure versus constant presence [2]: generally the same whether the drug is present in the culture throughout or after a single exposure
cytotoxicity, constant versus single dose ([2]; rat, 48 h): the same after 48 hours whether a constant or a single dose is given
cytotoxicity on cells that do not express p75 [3]: dose-dependent cytotoxicity

IC50 ([4]; Homo sapiens, KBV, 72 h, read-out: IC50 ± SEM): > 320 nM
Compound: COc1cccc2c1C(=O)c1c(O)c3c(c(O)c1C2=O)C[C@@](O)(C(=O)CO)C[C@@H]3O[C@H]1C[C@H](N)[C@H](O)[C@H](C)O1 [Doxorubicin]
cytotoxicity on multidrug resistant KB-V cells compared to sensitive KB cells [4]: inactive on KB-V cells unless Verapamil was added
cytotoxicity with or without excess antibody [5]: the same cytotoxicity whether excess of mig or α-IR3 is present or not

Compound: benzoic acid-Valine-Alanine-Aspartic acid-O-methyl-fluoromethyl-Iketone peptide [zVAD]
protection of cells in SFM [6]: does not protect cells
protection of B104 cells from death [7]: Neither 20 nM zVAD nor VAD-5c3 conjugate afford protection
